Assay [1] is described as follows: DPPH free radical scavenging assay. The conditions noted are these: pure compounds; 30 min, 517 nm, n = 3. The protocol: The DPPH free radical scavenging activities of extracts and pure compounds from stem barks of W. ugandensis were tested according to previous studies with slight modifications. Firstly, 10 µL solutions of the samples, appropriately diluted with MeOH, were homogeneously mixed with 190 µL solution of DPPH (0.1 mM in MeOH) in a 96-well plate. Secondly, the mixtures were gently shaken and put at room temperature for 30 min in the darkness. Finally, the absorbance was recorded at 517 nm with multifunctional microplate reader. Trolox was used as positive control, and MeOH was used as blank control. Each of the samples and controls were tested in triplicate (n = 3). The antioxidant activities of DPPH were expressed as IC50 (concentration of samples caused 50% inhibition) and TEAC values. The TEAC values were calculated from the standard curve of Trolox and expressed as millimoles of Trolox equivalents per gram of sample (mmol TE/g). The inhibition of the DPPH radical was calculated according to the following formula:DPPH scavenging activity (%) = (1 − absorbance of sample/absorbance of blank control) × 100,(1) where DPPH scavenging activities (%) were plotted against the concentration of samples to obtain the IC50.
A general note: Loss of DPPH colour is used to gauge radical scavenging.

Assay [2] can be described thus: ABTS free radical scavenging assay. Particulars: pure compounds; 30 min, 734 nm, n = 3. As for the experimental part:
The ABTS free radical scavenging activities of extracts and pure compounds from stem barks of W. ugandensis were tested according to previous studies with slight modifications. ABTS^+ solution was prepared by mixing equal volumes of potassium persulfate (4.9 mM in H2O) and ABTS (7.0 mM in H2O) and then incubated for 12 h in the darkness. The prepared ABTS^+ solution was diluted with MeOH to ensure an absorbance value about 0.700 ± 0.005 at 734 nm. Firstly, 10 µL of appropriately diluted solution of samples was added to the 190 µL ABTS^+ solution in 96-well plate. Secondly, the mixtures were gently shaken and put at room temperature for 30 min in the darkness. Finally, the absorbance was recorded at 734 nm with multifunctional microplate reader. Trolox was used as positive control, and MeOH was used as blank control. Samples and controls were tested in triplicate (n = 3). The antioxidant activities of ABTS were expressed as IC50 and TEAC values. The inhibition of the ABTS radicals was calculated according to the following formula:ABTS scavenging activity (%) = (1 − absorbance of sample/absorbance of blank control) × 100,(2) where ABTS scavenging activities (%) were plotted against the concentration of samples to acquire the IC50.

A short description of assay [3]: Ferric reducing antioxidant power (FRAP) assay. The conditions noted are these: for FRAP value: 37 °C, 10 min, 593 nm, n = 3. As for the experimental part:
The ferric reducing antioxidant power assays on different extracts and pure compounds of stem barks from W. ugandensis were tested according to previous studies with slight modifications. Firstly, freshly prepared FRAP reagent (Fe^3+-TPTZ solution) was composed of FeCl3∙6H2O (20 mM in H2O), TPTZ (10 mM in 40 mM HCl), and acetate buffer (300 mM, pH = 3.6) at a ratio of 1:1:10 (v/v/v), then incubated at 37 °C after preparation, and used within 1–2 h. Secondly, 10 µL of appropriately diluted solution of samples was added to the 190 µL freshly prepared FRAP reagent in 96-well plate. Thirdly, the mixtures were gently shaken and put at 37 °C for 10 min. Finally, the absorbance was recorded at 593 nm with multifunctional microplate reader. Trolox was used as a positive control, and MeOH was used as blank control. Each of the samples and controls were tested in triplicate (n = 3). The antioxidant activities of FRAP were expressed as FRAP values and TEAC values. The FRAP values were calculated and expressed as millimoles of Fe^2+ equivalents per gram of sample (mmol Fe^2+/g) based on a calibration curve plotted using FeSO4∙7H2O as standard at a concentration ranging from 0.0185 to 1.5 mM.

Assay [4] has as its system superoxide dismutase (SOD). Description: Affinity ultrafiltration LC-MS/MS with SOD (relative binding affinity). Also on record: key: -: No binding affinity. The conditions noted are these: peaks of WUE-A4, SOD 2 U, 37 °C 1 h, n = 3. The protocol: The experimental conditions were proposed according to previous relevant studies. Briefly, the optimized experiment was composed of three steps. Incubation was the first step, where 100 μL WUE-A4 (10.0 mg/mL), 10 µL SOD (2 U) or XOD (2 U), and 90 µL Tris-HCl (pH = 7.8) were mixed well in 1.5 mL EP tubes, and then incubated at 37 °C in the dark for 1 h. Meanwhile, the incubation operations of inactivated enzymes (inactivated enzymes were obtained by heating enzymes in a 99 °C water bath for 10 min) were the same as the active enzymes. Adsorption was the second step, where the incubated solutions were transferred to ultrafiltration tubes with 30 KDa (for SOD) or 10 KDa (for XOD) ultrafiltration membranes and then centrifuged at 10,000 rpm for 10 min at 25 °C. Simultaneously, components which had no binding affinity to enzymes were washed out. Immediately, 300 µL of Tris-HCl solution (pH = 7.8) was added to the ultrafiltration tubes and centrifuged at 10,000 rpm for 5 min at 25 °C to remove the potential unbound components. Desorption was the third step, where 300 µL of 90% (v/v) MeOH-H2O was added and incubated for 10 min at room temperature, and the mixed solutions were centrifuged at 10,000 rpm for another 10 min at 25 °C. After that, the desorption process was repeated two times to release those components with specific bindings to SOD or XOD from the enzyme-ligand complexes. Finally, those ultrafiltrates were dried and reconstituted in 50 µL MeOH for the HPLC-UV/ESI-MS/MS analysis.
HPLC-UV/ESI-MS/MS was carried out to characterize the components in WUE-A4 before and after ultrafiltration by using a Thermo Accela 600 series HPLC connected with a TSQ Quantum Access MAX mass spectrometer (Thermo Fisher Scientific, San Jose, CA, USA). A Waters Symmetry RP-C18 column (4.6 × 250 mm, 5 µm) was used to perform chromatographic analysis at 30 °C, and the mobile phase consisted of H2O with 0.1% formic acid (A) and ACN (B). The optimized HPLC elution procedures were as follows: 0–15 min, 17% B; 15–40 min, 17–30% B, 40–42 min: 30–56% B. The flow rate was 0.8 mL/min, the injection volume was 10 µL, and the HPLC-UV chromatograms were detected at a wavelength of 254 nm. The negative ion modes were applied to obtained ESI-MS/MS data. Moreover, the parameters of instrument were set as follows: the vaporizer temperature was 350 °C, the capillary temperature was 250 °C, the spray voltage was 3000 V, the cone voltage energy was 40 V, the collision energy was 10 V, the sheath gas pressure was 40 psi, the aux gas pressure was 10 psi, the drying gas flow rate was 6.0 L/min, and the mass range was set from 50 to 1100 (m/z) in the full-scan mode. Finally, the Thermo Xcalibur ChemStation (Thermo Fisher Scientific) was used for data acquisition and analysis.
For further evaluation of the affinity binding strength between the potential ligands and the target enzymes, the relative binding affinity (RBA) was employed to compare the variation of the correlated peak areas in the UF-HPLC-UV chromatograms before and after activation. The RBA formula is expressed as RBA = Aactive/Ainactivated, where the Aactive and Ainactivated represent the peak areas obtained from the WUE-A4 samples with activated and inactivated SOD or XOD, respectively.

The values that follow come from article PMC8001783, “New Lignanamides with Antioxidant and Anti-Inflammatory Activities Screened Out and Identified from Warburgia ugandensis Combining Affinity Ultrafiltration LC-MS with SOD and XOD Enzymes” (Antioxidants, 2021).

“And” between values parts separate entries of the source, which are not always exact repeats. Equal values may be shown once. Marks after values point to notes of the source that are not given here.

Turning to “1-(3,4-dihydroxy-5-methoxyphenyl)-1,2-dihydroxy-7,8-dihydroxy-N-[(3,4-dihydroxyphenyl)-ethyl]-N′-[(4-hydroxyphenyl)-ethyl]-6-methoxynaphthalene-2,3-dicarboxamide [compound 11]”, the IC50 in assay [1] worked out at 59.1 ± 4.1 µM; in assay [2], 80 ± 10.3 µM. In addition, the FRAP value in assay [3] is given as 2.2 ± 0.1 ^c mmol Fe^2+/g. Besides, the “UF-RBA SOD (relative binding affinity = Aactive/Ainactivated)” value in assay [4] is on record as “-”; in assay [4] (listed as peak 11), “extremely low or no binding affinities”.

For `C[C@@H]1O[C@@H](O[C@@H]2[C@@H](O)[C@H](O)[C@@H](CO)O[C@H]2c2cc(-c3cc(=O)c4c(O)cc(O)cc4o3)cc(O)c2O)[C@H](O)[C@H](O)[C@H]1O` [compound 1, 2-[3-[2-O-(6-deoxy-α-L-mannopyranosyl)-β-D-glucopyranosyl]-4,5-dihydroxyphenyl]-5,7-dihydroxy-4H-1-benzopyran-4-one], the IC50 in assay [1] amounted to 25.8 ± 1.4 µM; in assay [2], 62.5 ± 4.2 µM. Besides, in assay [3], the FRAP value is recorded as 5.4 ± 0.7 ^b mmol Fe^2+/g. Besides, the “UF-RBA SOD (relative binding affinity = Aactive/Ainactivated)” value in assay [4] is recorded as 1.9 ± 0.1 ^a,b,c; in assay [4] (listed as peak 1), 1.93.

Turning to `O=C(/C=C/c1ccc(O)c(O)c1)NCCc1ccc(O)cc1` [compound 7, N-trans-caffeoyltyramine], the results for the IC50 in assay [1] and in assay [2] were 636 ± 290 µM and 463 ± 157 µM, respectively. Besides, in assay [3], the FRAP value is recorded as 1.9 ± 0.1 ^c mmol Fe^2+/g. Besides, in assay [4], the “UF-RBA SOD (relative binding affinity = Aactive/Ainactivated)” value is recorded as 1.1 ± 0.3 ^e.

As for `COc1cc(C2c3c(cc(OC)c(O)c3O)C=C(C(=O)NCCc3ccc(O)cc3)C2C(=O)NCCc2ccc(O)cc2)cc(O)c1O` (stereo not drawn) [compound 13], the figures for the IC50 in assay [1] and in assay [2] were 115 ± 20.8 µM and 69.8 ± 6.3 µM, respectively. In addition, the FRAP value in assay [3] is recorded as 1.3 ± 0.2 ^c mmol Fe^2+/g. Further, the “UF-RBA SOD (relative binding affinity = Aactive/Ainactivated)” value in assay [4] is recorded as 1.3 ± 0.1 ^e.

Regarding `COc1cc(C2c3c(cc(O)c(O)c3OC)C=C(C(=O)NCCc3ccc(O)cc3)C2C(=O)NCCc2ccc(O)cc2)cc(O)c1O` (stereo not drawn) [compound 14], the IC50 in assay [1] is 6.41 µM and 6.4 µM; in assay [2] it was 5.38 µM and 5.4 µM. Moreover, in assay [3], the “total ferric-reducing antioxidant power (FRAP)” value amounted to 17.488 ± 1.625 mmol Fe^2+/g. Moreover, in assay [3], the FRAP value was 17.488 ± 1.625 mmol Fe^2+/g and 17.5 ± 1.6 ^a mmol Fe^2+/g. Besides, the “UF-RBA SOD (relative binding affinity = Aactive/Ainactivated)” value in assay [4] is 1.5 ± 0.1 ^c,d,e; in assay [4] (listed as peak 14), 1.51.

By IC50 is commonly meant the concentration at which inhibition is half-maximal.
